Test results from US8865684B2, “Morpholin-4-ium 4 methoxyphenyl (morpholino) phosphinodithioate (GYY4137) as a novel vasodilator agent” (National University of Singapore, priority 2009, dated 2014).

Legend:
[1] = GYY4137 133 μmol/kg IV or IP; NaHS 20 μmol/kg IV; up to 180 minutes
Protocol: Blood (0.5 mL) was withdrawn at timed intervals, anticoagulated with heparin (50 U/mL), and centrifuged (2000 g, 20 minutes). […] The zinc acetate assay measures free H2S plus related species including HS^− (hydrosulfide anion) and S2^− (sulfide). Accordingly, results for plasma H2S reported herein indicate the sum total of these species. All experiments on intact animals were undertaken with the approval of the local National University of Singapore Institutional Animal Care and Use Committee.

[2] = system: anesthetized rat; assay: Blood pressure in the anesthetized rat; assay type: in vivo
[3] = system: phenylephrine-precontracted rat aorta; assay: tissue or blood
[4] = system: Langendorff-perfused rat heart; assay: Langendorff-perfused rat heart; conditions: at 30 minutes
Protocol: (§1) For experiments using perfused kidney or heart, Sprague-Dawley rats (male; weight, 230 to 270 g) were anesthetized as described above. […] In kidneys, dose-response curves (volumes <10 μL) were obtained for bolus-injected noradrenaline, angiotensin II, or U46619.

[5] = H2S release in vitro, DTNB assay; assay type: physicochemical; conditions: phosphate buffer
[6] = system: isolated perfused rat kidney; assay: Isolated perfused rat kidney, perfusion pressure
Protocol: as §1

[7] = system: rat aortic vascular smooth muscle cells (A10); assay: cAMP and cGMP in cultured vascular smooth muscle cells (ELISA); assay type: cell-based; conditions: 100 μmol/L, 45 minutes, isobutyl methylxanthine 300 μmol/L; control 11.3±1.4; n=6
Source text: Normal rat aortic vascular smooth muscle cells (A10) were obtained from the American Type Culture Collection (ATCC, Manassas, Va.).

S [NaHS, sodium hydrosulfide]
plasma H2S (H2S, HS−, S2−) concentration [1]: did not elevate | effect on blood pressure ([2]; NaHS 2.5 to 20 μmol/kg IV, GYY4137 26.6 to 133 μmol/kg IV): immediate, transient (10 to 30 seconds), and dose-related falls | time course: response to a standard concentration of phenylephrine after drug [3]: did not reduce | vasorelaxant effect after removal of the endothelium or exposure to L-NAME or ODQ [3]: reduced | vasorelaxant effect in presence of KATP channel blockers (glibenclamide or PNU37883A) [3]: reduced | EC50 ([3]; Rattus norvegicus, phenylephrine-precontracted, read-out: EC50, relaxation of aortic rings): 274 ± 22.2 µM | Emax ([3]; Rattus norvegicus, phenylephrine-precontracted, read-out: Emax, relaxation of aortic rings): 63.4 ± 3.3% | approximate EC70 ([3]; concentration used for time course experiments): ~300 µM | reduction of cardiac contractility (left ventricular diastolic pressure) ([4]; 100 μmol/L): 42.0±7.8% | reduction of heart rate ([4]; NaHS 100 μmol/L): 53.2±6.6% | H2S release in the DTNB assay [5]: instantaneous | transient fall in perfusion pressure ([6]; bolus 10 nmol, n=10): 10.2±2.8 mm Hg | fall in perfusion pressure (biphasic response) ([6]; bolus 5 μmol, n=8): 11.6±4.5 mm Hg | rise in perfusion pressure (biphasic response) ([6]; bolus 5 μmol, n=8): 22.7±6.7 mm Hg

C1CCC(N=C(NC23CC4CC(CC(C4)C2)C3)N2CCOCC2)CC1.Cl [PNU37883A]
blood pressure after PNU37883A ([2]; 15 minutes after PNU37883A 26.2 μmol/kg IP, versus 105.6±3.5 before injection, n=5, P=0.053): 117.2±3.7 mm Hg

C=C[C@@]1(C)CC(=O)[C@]2(O)[C@@]3(C)[C@@H](O)CCC(C)(C)[C@@H]3[C@H](O)[C@H](OC(C)=O)[C@@]2(C)O1 [forskolin]
cAMP concentration [7]: 79.6 ± 1.6 nmol/L
